Measured values taken from publication PMC8305768, “Design, Synthesis and Antiparasitic Evaluation of Click Phospholipids” (Molecules, 2021).
Counter-ions that a name gives are not always drawn. Like-named read-outs stand apart in the source and are kept apart here.

What was measured:
[1] = system: L. infantum MHOM/TN/80/LEM235 intracellular amastigotes; assay: Activity against L. infantum MHOM/TN/80/LEM235 intramacrophage amastigotes (infected THP-1, Giemsa staining); assay type: cell-based, Leishmania infantum; settings: for Selectivity Index CC50/IC50: CC50 THP-1 / IC50 L. infantum MHOM/TN/80/LEM235; for IC50: Leishmania infantum, read-out: L. infantum MHOM/TN/80/LEM235 intracellular amastigotes IC50 ± SD
Method: THP-1 cells were differentiated with […] retinoic acid (Sigma, Saint Louis, MI, USA) for 3 days at 37 °C and 5% CO2. Infection of THP-1 cells with promastigotes was achieved by mixing the THP-1 and the parasite cultures at a ratio of 1:4 and incubation at 37 °C and 5% CO2. The next day cells were washed by centrifugation at 400 × g for 10 min, the pellet was resuspended in RPMI medium, and the suspension was overlaid with an equal volume of Histopaque 1077 (Invitrogen, Waltham, MA, USA). The free promastigotes were removed by centrifugation at 1000 × g for 20 min. The cell layer was washed with PBS twice and resuspended in RPMI at 4 × 10^5 cells/mL. Infection rate was assessed microscopically by Giemsa staining of the infected THP-1 suspension. An amount of 200 µL of infected THP-1 was plated in a 24-well tissue culture plate (Cellstar®, Greiner) (Sigma-Aldrich Chemie GMBH, Taufkirchen, Germany) and mixed with an equal volume of the appropriate compound concentration (compounds were dissolved in DMSO/ethanol, 50/50 v/v, to a final concentration of 65 mM and linear 5-fold dilutions ranging from 100 to 0.8 µM were done in the culture medium). Incubation proceeded for 72 h at 37 °C and 5% CO2, and the percentage of infected cells was monitored microscopically after Giemsa staining.

[2] = parameters: method as in PMID 18472998, PMID 22573856; settings: in humans ref 12,13; cited from earlier work
[3] = system: T. cruzi intracellular amastigotes (Y strain); assay: T. cruzi intracellular amastigotes in Swiss mouse peritoneal macrophages (high content imaging); assay type: cell-based; settings: Trypanosoma cruzi, Peritoneal macrophage
Method: The trypomastigotes were obtained from the supernatant of a previously infected cell line (LLC-MK2). Between 5 and 7 days after infection, protozoa were collected from the supernatants of the infected LLC-MK2 cells and were then incubated with fresh RPMI 1640 medium supplemented with 0.5% FBS, with or without the compounds, for 24 h at 37 °C under a 5% CO2 atmosphere. […] The experiment was performed in duplicate for each of the three different experiments. […] To investigate the effect of the compounds on intracellular amastigotes, peritoneal macrophages from Swiss mouse (CF1) plated in 96 wells plates (Costar®, Sigma, São Paulo, Brazil) were incubated for 2 h with T. cruzi trypomastigotes at a ratio of 10 parasites to 1 cell. The non-internalized parasites were removed by washing with the RPMI 1640 medium, and the host cells were incubated for 24 h at 37 °C to allow full internalization and differentiation of trypomastigotes to amastigotes. Fresh 10% FBS-RPMI 1640 medium with 1 µg/mL Hoescht 3348 and 1 µg/mL of WGA-FITC (control) or the same solution containing the inhibitors was added to the infected cells, which were then incubated for 96 h at 37 °C. Every 24 h samples were taken and analysed in high content equipment (InCell Analyser 2000, GE Healthcare, Chicago, IL, USA) with 20× air objective (NA 0.4) using respectively filters to excitation and emission to DAPI (405/455 nm), FITC (488/505 nm) and Cy3 (514/605 nm). Six images were collected for each well for reliable statistical analysis. […] The infection index (i.e., the percentage of infected host cells multiplied by the average number of intracellular amastigotes per infected host cell) was determined by counting a total of 500 host cells. Inhibitor activity was calculated using the SigmaPlot (version 10) program (Systat Software, Inc., San Jose, CA, USA). The results are expressed as the mean values from three independent experiments. The IC50 was calculated for promastigotes and intracellular amastigotes by fitting the values to a non-linear curve analysis. […]

[4] = system: PMA-differentiated THP-1 cells; assay: Cytotoxicity against THP-1 macrophages (MTT); assay type: cell-based; settings: PMA-differentiated THP-1 macrophages, 72 h, read-out: Toxicity CC50 ± SD Or CC50 Interval Estimation
Method: The effect of compounds selected compounds on THP-1-derived macrophages was assessed by the colorimetric MTT assay (3-(4,5-dimethylthiazol-2-yl)-2,5-diphenyl tetrazolium bromide). Briefly, 1 × 10^5 THP-1 cells/mL were differentiated into macrophages by addition of 20 ng/mL of phorbol-myristate 13-acetate (PMA, Sigma, Saint Louis, MI, USA) for 18 h, followed by replacement with fresh medium for 24 h. Cells were incubated with 100 µL of compounds ranging from 100 to 1 µM after dilution in the RPMI complete medium containing a maximum amount of 1% DMSO. After incubation for 72 h, the medium was removed and 100 µL of 0.5 mg/mL MTT solution diluted in RPMI was added. Plates were incubated for an additional 4 h to allow viable cells to convert MTT into a purple formazan product. Solubilization of formazan crystals was achieved by the addition of 2-propanol and absorbance was read at 570 nm using a Synergy 2 Multi-Mode Reader (Biotek, Winooski, VT, USA). Cytotoxicity was evaluated by the determination of the CC50 value (drug concentration that reduced the percentage of viable cells in 50%) and calculated by non-linear regression analysis using GraphPad Prism version 8.1.1 for Windows (GraphPad Software, San Diego, CA, USA).

SMILES	Selectivity Index CC50/IC50 [1]	IC50 ([1]; infected THP-1 cells, 72 h) [µM]	other results
C[N+](C)(C)CCOP(=O)([O-])OCCCCCCCCCCCn1cc(CC2CCCCC2)nn1 [Compound 29, 11-(4-(cyclohexylmethyl)-1H-1,2,3-triazol-1-yl)undecyl (2-(trimethylammonio)ethyl) phosphate inner salt]	> 200	0.5 ± 0.2	
CCCCCc1cn(CCCCCCCCCCCOP(=O)([O-])OCC[N+](C)(C)C)nn1 [Compound 25, 11-(4-pentyl-1H-1,2,3-triazol-1-yl)undecyl (2-(trimethylammonio)ethyl) phosphate inner salt]	> 10.7	9.33 ± 0.99	
C[N+](C)(C)CCOP(=O)([O-])OCCCCCCCCCCCn1cc(CC2CCCC2)nn1 [Compound 28, 11-(4-(cyclopentylmethyl)-1H-1,2,3-triazol-1-yl)undecyl (2-(trimethylammo nio)ethyl) phosphate inner salt]	> 66.7	1.5 ± 0.4	
CCCCCCCCCCCCCCCCOP(=O)([O-])OCC[N+](C)(C)C [Miltefosine, hexadecylphosphocholine, reference compound]	4.9		half-life [2]: 100 to 200 h; IC50 ([1]; THP-1, 72 h): 6.68 ± 0.96 µM; IC50 ([3]; 24 h, read-out: IC50 24 h): 12.4 ± 0.6 µM; IC50 ([3]; 48 h, read-out: IC50 48 h): 4.59 ± 0.1 µM; IC50 ([3]; 72 h, read-out: IC50 72 h): 4.3 ± 0.12 µM
CCCCCCCCc1noc(CCCCCCCCCCOP(=O)([O-])OCC[N+](C)(C)C)n1 [Compound 54, 10-(3-octyl-1,2,4-oxadiazol-5-yl)decyl (2-(trimethylammonio)ethyl) phosphate inner salt]			CC50 [4]: 10.8 µM
